The values that follow come from patent US7303758B2 (Cordis Corporation, priority 2004, dated 2007).

One data set concerns tumor cell lines. Conditions: cited from earlier work.
For data set [1], the system named is human coronary artery smooth muscle cell proliferation. Kind of data set: In vitro cell culture study of coronary artery smooth muscle cell proliferation. Type of data set: cell-based. The source says:
FIG. 51 is a graph of the inhibition of coronary artery smooth muscle cells by trichostatin A in a cell culture study.

The nature of data set [2]: In vivo release kinetics from PVDF basecoat with PVDF topcoat, porcine pharmacokinetics studies. Particulars: six hundred micro grams basecoat, two hundred micro grams topcoat. The source says:
The topcoat is two hundred micro grams.

In data set [3] the test system is non-synchronized cultured human coronary artery smooth muscle cells. Kind of data set: Anti-proliferative activity of rapamycin with varying mycophenolic acid concentrations. Type of data set: cell-based. Particulars: mycophenolic acid zero to one thousand nano molar, two percent fetal bovine serum. From the text:
The multiple curves represent various concentrations of mycophenolic acid ranging from zero to one thousand nano molar concentrations. […] This potentiation observed in cultured coronary artery smooth muscle cells preferably translates to an enhancement in anti-restenotic efficacy following vascular injury and a reduction in the required amount of either agent to achieve the desired anti-restenotic effect.

Data set [4] can be described thus: In vivo release kinetics from EVA/BMA basecoat, porcine pharmacokinetics studies. Conditions: basecoat 180 μg rapamycin, 180 μg mycophenolic acid, 240 μg EVA/BMA, with or without BMA topcoat.

Consider `CC(/C=C/C(=O)NO)=C\[C@@H](C)C(=O)c1ccc(N(C)C)cc1` [trichostatin A], for which the “anti-proliferative IC50” value with tumor cell lines is given as “low nM range”. Further, the IC50 in data set [1] (human coronary artery smooth muscle cells, read-out: anti-proliferative IC50) is around 6 nM. In data set [1] (in vitro cell culture), the “inhibition of human coronary artery smooth muscle cell proliferation” value is given as “completely inhibit”.

Take `CO[C@H]1C[C@@H]2CC[C@@H](C)[C@@](O)(O2)C(=O)C(=O)N2CCCC[C@H]2C(=O)O[C@H]([C@H](C)C[C@@H]2CC[C@@H](O)[C@H](OC)C2)CC(=O)[C@H](C)/C=C(\C)[C@@H](O)[C@@H](OC)C(=O)[C@H](C)C[C@H](C)/C=C/C=C/C=C/1C` [Rapamycin, rapamycin]: the “in vivo release rate from PVDF basecoat with PVDF topcoat” value in data set [2] is “slower release rate than that of mycophenolic acid”.

Turning to `COc1c(C)c2c(c(O)c1C/C=C(\C)CCC(=O)O)C(=O)OC2` [mycophenolic acid], the “effect on anti-proliferative rapamycin dose response curve” value in data set [3] is “potentiates the anti-proliferative activity of rapamycin”. The “in vivo release from EVA/BMA basecoat” value in data set [4] is “elutes more completely over a shorter duration than the rapamycin”.

The IC50 is the concentration at which inhibition is half-maximal.
